Data on one molecule can be found in patent publication US8722652B2, “Acute treatment of social phobia” (Pherin Pharmaceuticals, Inc., priority 2005, dated 2014).

Type in all cases: in vivo, human
The subject of assay [1] is patients diagnosed with generalized social phobia. As to the kind of experiment: Phase-2 randomized double-blind study: public speaking and social interaction challenges in social phobia patients, intranasal spray. The text has this:
A Phase-2 Randomized, Double-blind, Crossover Study of the Use of Single Doses of [3β]-Androsta-4,16-dien-3-ol for Management of the Symptoms of Social phobia
The following describes a study of the effects of the vomeropherin [3β]-androsta-4,16-dien-3-ol on human female patients suffering from social phobia.
The study comprised 40 patients with clinical diagnosis of Social Phobia. Each patient was randomly assigned to one of the following double-blind treatment groups: 800 nanogram [3β]-Androsta-4,16-dien-3-ol or placebo delivered intranasally in spray form. Each patient participated in the Treatment Phase as follows.
First Visit: the patient visited the study center and the following activities were conducted during this visit: Pre-Challenge: After arrival at the study center, the patient completed self-reports of their usual anxiety symptoms. Public Speaking Challenge: The patient was administered a spray (50 microliters) of placebo to each nostril, and the procedures for the Public Speaking Challenge were then explained to the patient. The patient was given four minutes to prepare one of several topics for a four-minute speech, without notes, in front of an audience of several people who evaluated the speech and videotaped it. Immediately after completing the preparation period, the patient completed self-reports of their anticipatory anxiety and the Investigator then rated the patient's anticipatory anxiety. The patient gave their speech. Immediately after completing the speech, the patient completed self-reports of anxiety experienced during the speech. The Investigator then rated the anxiety experienced by the patient. Social Interaction Challenge: Approximately one hour after completion of the Public Speaking Challenge, the patient was administered another dose of placebo in each nostril, and the procedures for a Social Interaction Challenge appropriate for one of the patient's most-feared social interaction situations were then described to the patient. Then, the patient completed self-reports of their anticipatory anxiety and the Investigator rated the patient's anticipatory anxiety. Then, the patient participated in a four-minute mock social interaction while being observed by several raters and videotaped. Immediately after completing the social interaction, the patient completed self-reports of anxiety experienced during the interaction. Then, the Investigator rated the anxiety experienced by the patient. Those patients that during the first visit responded to placebo during the public speaking or the social interaction challenge were terminated from the study at that time. Patients non-responding to placebo during the first visit participated in a second visit where they were randomly dosed again with placebo, or with 800 nanograms androsta-4,16-dien-3β-ol per nostril (total dose=1,600 nanograms) delivered in spray form. Each patient was challenged and also the anxiety symptoms were scores using the same procedure performed during first visit.
The mean score obtained during the first visit (baseline scores) for each, anticipatory public speaking, performance public speaking, anticipatory social interaction and performance social interaction, was subtracted from the mean score (same parameter) obtained during the second visit. The result is a measure of symptom improvement.

The subject of another assay is vomeronasal receptors. In words: Electrovomerogram dose-response (mass receptor potential of the vomeronasal receptors), local aerosol delivery with Multifunctional Miniprobe. The protocol: The effective amount of androsta-4,16-dien-3β-ol administered was determined in dose-response studies where the amplitude of the mass receptor potential of the vomeronasal receptors (electrogram of the vomeronasal organ or electrovomerogram) was recorded from volunteers diagnosed with generalized anxiety disorder (GAD), while locally delivering different concentrations of the steroid in aerosol form, using a Multifunctional Miniprobe® described in U.S. Pat. No. 5,303,703. This electrovomerogram allows precise measuring of the concentration dependent effect of locally delivered androsta-4,16-dien-3β-ol to vomeronasal receptors, and calculation of the half-maximal concentration, the Effective Concentration 50 (EC50).
Androsta-4,16-dien-3β-ol was delivered directly to the vomeronasal organ pit of anxious patients using the Multifunctional Miniprobe®, consisting of a concentric arrangement of Teflon® tubes having an inner non-polarized silver wire recording-electrode. […] The electrovomerogram recorded with the surface silver-wire electrode was electronically amplified and continuously monitored in a computer and a dose-response curve was obtained by plotting the peak amplitude of electrovomerograms produced by several different amounts of androsta-4,16-dien-3β-ol (ranging from 0 (control) to 1000 picograms). […]

Assay [2] deals with patients diagnosed with generalized anxiety disorder. In words: Acute anxiety symptom scores (HAM-A, COVI, CGI) after delivery to the vomeronasal organ of patients with generalized anxiety disorder.
The mark [3] stands for this setting: 1600 nanogram intranasally, n = 40, Mean Baseline Score − Mean Score After Treatment.
Setting [4] is: 1 nanogram to the vomeronasal organ, GAD patients n = 20.

In the case of `C[C@@]12C=CC[C@H]1[C@@H]1CCC3=C[C@@H](O)CC[C@]3(C)[C@H]1CC2` [androsta-4,16-dien-3β-ol], the “Anticipatory and Performance anxiety scores” value in assay [1] (5 minutes after administration, Social Interaction and Public Speaking) is “notably and significantly decreased”. Further, in assay [1] (setting [3]), the “Mean Symptom Improvement, Anticipatory Public Speaking Anxiety” value worked out at 10.417; the “Mean Symptom Improvement, Anticipatory Social Interaction Anxiety” value is reported as 12.166; the “Mean Symptom Improvement, Performance Public Speaking Anxiety” value came out at 26.294; the “Mean Symptom Improvement, Performance Social Interaction Anxiety” value turned out to be 14.197. The “Symptom improvement versus placebo” value in assay [1] (second visit versus first-visit baseline scores) was “much greater and significant symptom improvement than placebo”. For the same molecule, the “EC50 (half-maximal concentration, electrovomerogram peak amplitude)” value in the assay with vomeronasal receptors (delivered directly to vomeronasal organ pit, aerosol from propylene glycol, GAD volunteers) was determined as 0.5 nanograms. The KD on vomeronasal receptors (set equal to EC50 (linear receptor occupancy-response, model of A. J. Clark)) is 0.5 ng. For the same molecule, in assay [2] (setting [4]), the “Mean acute symptom improvement, CGI (Mean Baseline Score − Mean Score after Treatment)” value worked out at 1.17; the “Mean acute symptom improvement, COVI (Mean Baseline Score − Mean Score after Treatment)” value was 2.8; the “Mean acute symptom improvement, HAM-A (Mean Baseline Score − Mean Score after Treatment)” value came out at 10.6. Besides, the “Acute anxiety symptoms scores (HAM-A, COVI, CGI)” value in assay [2] (concentrations above the EC50, 20 human female GAD patients, effect lasting 30 minutes after intranasal administration) was “significantly reduced”.
